According to US5591714A, “Derivatives of A82846” (priority 1994, dated 1997):
Converted amounts (≈) assume the structure as drawn.

Experiments:
Streptococcus pyogenes = test: In vivo activity, experimentally infected mice (ED50); conditions: Streptococcus pyogenes infection; doses administered subcutaneously to mice 1 and 4 hours postinfection
Staphylococcus aureus = test: as above; conditions: Staphylococcus aureus infection; doses administered subcutaneously to mice 1 and 4 hours postinfection
Streptococcus pneumoniae = test: as above; conditions: Streptococcus pneumoniae infection; doses administered subcutaneously to mice 1 and 4 hours postinfection
Enterococcus faecium X66 = test: MIC, standard agar-dilution assay; format: cell-based
Procedure: (§1) The formula I compounds have in vitro and in vivo activity against Gram-positive pathogenic bacteria. The MIC's were determined using a standard agar-dilution assays.
^b Formerly Streptococcus faecium X66

[1] = system: Enterococcus faecalis 2041; test: MIC, standard agar-dilution assay; format: cell-based
Procedure: as §1
^c Formerly Streptococcus faecalis 2041

[2] = system: Streptococcus pneumoniae Park 1; format: cell-based
Procedure: as §1

[3] = system: Staphylococcus aureus S13E; format: cell-based
Procedure: as §1

[4] = system: Haemophilus influenzae 76; test: MIC, standard agar-dilution assay; format: cell-based
Procedure: as §1

[5] = system: Streptococcus pyogenes C203; test: MIC, standard agar-dilution assay; format: cell-based
Procedure: as §1

[6] = system: Klebsiella pneumoniae X26; test: MIC, standard agar-dilution assay; format: cell-based
Procedure: as §1

[7] = system: Klebsiella pneumoniae KAE; test: MIC, standard agar-dilution assay; format: cell-based
Procedure: as §1

Escherichia coli N10 = test: MIC, standard agar-dilution assay; format: cell-based
Procedure: as §1

[8] = system: Staphylococcus aureus X400; test: MIC, standard agar-dilution assay; format: cell-based
Procedure: as §1

[9] = system: Klebsiella pneumoniae X68; test: MIC, standard agar-dilution assay; format: cell-based
Procedure: as §1

[10] = system: Staphylococcus epidermidis EPI270; test: MIC, standard agar-dilution assay; format: cell-based
Procedure: as §1

[11] = system: Staphylococcus epidermidis 222; test: MIC, standard agar-dilution assay; format: cell-based
Procedure: as §1

[12] = system: Haemophilus influenzae C.L.; test: MIC, standard agar-dilution assay; format: cell-based
Procedure: as §1

[13] = system: Staphylococcus aureus NRRL X1.1; test: MIC, standard agar-dilution assay; format: cell-based
Procedure: as §1

Escherichia coli TEM = test: MIC, standard agar-dilution assay; format: cell-based
Procedure: as §1

[14] = system: Staphylococcus aureus V41; test: MIC, standard agar-dilution assay; format: cell-based
Procedure: as §1

Escherichia coli EC14 = test: MIC, standard agar-dilution assay; format: cell-based
Procedure: as §1

SMILES	ED50 (Streptococcus pyogenes) [mg/kg/2]	ED50 (Streptococcus pneumoniae) [mg/kg/2]	MIC (Enterococcus faecium X66)	MIC [1]	MIC [2]	MIC [3]	MIC [4] [µg/mL]	MIC [5]	MIC [6] [µg/mL]	MIC [7] [µg/mL]	MIC (Escherichia coli N10) [µg/mL]	MIC [8]	MIC [9] [µg/mL]	MIC [10]	MIC [11]	MIC [12] [µg/mL]	MIC [13]	MIC (Escherichia coli TEM) [µg/mL]	MIC [14]	MIC (Escherichia coli EC14) [µg/mL]	also measured
CCCCCN(C)[C@H](CC(C)C)C(=O)N[C@H]1C(=O)N[C@@H](CC(N)=O)C(=O)N[C@H]2C(=O)N[C@H]3C(=O)N[C@H](C(=O)N[C@H](C(=O)O)c4cc(O)cc(O)c4-c4cc3ccc4O)[C@H](O[C@H]3C[C@](C)(N)[C@@H](O)[C@H](C)O3)c3ccc(cc3)Oc3cc2cc(c3O[C@@H]2O[C@H](CO)[C@@H](O)[C@H](O)[C@H]2O[C@H]2C[C@](C)(N)[C@@H](O)[C@H](C)O2)Oc2ccc(cc2Cl)[C@H]1O [Compound 6]	0.67	0.94	1 µg/mL (≈ 0.614 µM)	1 µg/mL (≈ 0.614 µM)	.125 µg/mL (≈ 0.0768 µM)	.25 µg/mL (≈ 0.154 µM)	> 128	.125 µg/mL (≈ 0.0768 µM)	> 128	> 128	> 128	.25 µg/mL (≈ 0.154 µM)	> 128	.5 µg/mL (≈ 0.307 µM)	.5 µg/mL (≈ 0.307 µM)	> 128	.25 µg/mL (≈ 0.154 µM)	> 128	.25 µg/mL (≈ 0.154 µM)	> 128	ED50 (Staphylococcus aureus): 0.88 mg/kg/2
CN[C@H](CC(C)C)C(=O)N[C@H]1C(=O)N[C@@H](CC(N)=O)C(=O)N[C@H]2C(=O)N[C@H]3C(=O)N[C@H](C(=O)N[C@H](C(=O)O)c4cc(O)cc(O)c4-c4cc3ccc4O)[C@H](O[C@H]3C[C@](C)(NCc4ccc(Cl)cc4)[C@@H](O)[C@H](C)O3)c3ccc(cc3)Oc3cc2cc(c3O[C@@H]2O[C@H](CO)[C@@H](O)[C@H](O)[C@H]2O[C@H]2C[C@](C)(N)[C@@H](O)[C@H](C)O2)Oc2ccc(cc2Cl)[C@H]1O [Compound 21]	0.29	0.47	.5 µg/mL (≈ 0.297 µM)	.5 µg/mL (≈ 0.297 µM)	.5 µg/mL (≈ 0.297 µM)	.25 µg/mL (≈ 0.149 µM)	> 128	.5 µg/mL (≈ 0.297 µM)	> 128	> 128	> 128	.5 µg/mL (≈ 0.297 µM)	> 128	.5 µg/mL (≈ 0.297 µM)	.25 µg/mL (≈ 0.149 µM)	> 128	.5 µg/mL (≈ 0.297 µM)	> 128	.5 µg/mL (≈ 0.297 µM)	> 128	–
CN[C@H](CC(C)C)C(=O)N[C@H]1C(=O)N[C@@H](CC(N)=O)C(=O)N[C@H]2C(=O)N[C@H]3C(=O)N[C@H](C(=O)N[C@H](C(=O)O)c4cc(O)cc(O)c4-c4cc3ccc4O)[C@H](O[C@H]3C[C@](C)(NCc4ccc(Cl)cc4)[C@@H](O)[C@H](C)O3)c3ccc(cc3)Oc3cc2cc(c3O[C@@H]2O[C@H](CO)[C@@H](O)[C@H](O)[C@H]2O[C@H]2C[C@](C)(NCc3ccc(Cl)cc3)[C@@H](O)[C@H](C)O2)Oc2ccc(cc2Cl)[C@H]1O [Compound 23]	0.8	1.02	4 µg/mL (≈ 2.21 µM)	4 µg/mL (≈ 2.21 µM)	1 µg/mL (≈ 0.553 µM)	2 µg/mL (≈ 1.11 µM)	> 128	2 µg/mL (≈ 1.11 µM)	> 128	> 128	> 128	2 µg/mL (≈ 1.11 µM)	> 128	2 µg/mL (≈ 1.11 µM)	1 µg/mL (≈ 0.553 µM)	> 128	2 µg/mL (≈ 1.11 µM)	> 128	2 µg/mL (≈ 1.11 µM)	> 128	–
CCCCCCCCc1ccc(CNC2(C)CC(OC3C(Oc4c5cc6cc4Oc4ccc(cc4Cl)C(OC4CC(C)(N)C(O)C(C)O4)C4NC(=O)C(NC(=O)C6NC(=O)C(CC(N)=O)NC(=O)C(NC(=O)C(CC(C)C)NC)C(O)c6ccc(c(Cl)c6)O5)c5ccc(O)c(c5)-c5c(O)cc(O)cc5C(C(=O)O)NC4=O)OC(CO)C(O)C3O)OC(C)C2O)cc1 (stereo not shown) [Compound 54]	0.91	–	64 µg/mL (≈ 35.7 µM)	64 µg/mL (≈ 35.7 µM)	4 µg/mL (≈ 2.23 µM)	64 µg/mL (≈ 35.7 µM)	> 128	8 µg/mL (≈ 4.46 µM)	> 128	> 128	> 128	64 µg/mL (≈ 35.7 µM)	> 128	64 µg/mL (≈ 35.7 µM)	64 µg/mL (≈ 35.7 µM)	> 128	32 µg/mL (≈ 17.8 µM)	> 128	64 µg/mL (≈ 35.7 µM)	> 128	–
CCCCCCCCOc1ccc(CNC2(C)CC(OC3C(Oc4c5cc6cc4Oc4ccc(cc4Cl)C(OC4CC(C)(N)C(O)C(C)O4)C4NC(=O)C(NC(=O)C6NC(=O)C(CC(N)=O)NC(=O)C(NC(=O)C(CC(C)C)NC)C(O)c6ccc(c(Cl)c6)O5)c5ccc(O)c(c5)-c5c(O)cc(O)cc5C(C(=O)O)NC4=O)OC(CO)C(O)C3O)OC(C)C2O)cc1 (stereo not shown) [Compound 55]	0.73	–	8 µg/mL (≈ 4.42 µM)	8 µg/mL (≈ 4.42 µM)	2 µg/mL (≈ 1.1 µM)	8 µg/mL (≈ 4.42 µM)	> 128	4 µg/mL (≈ 2.21 µM)	> 128	> 128	> 128	16 µg/mL (≈ 8.84 µM)	> 128	16 µg/mL (≈ 8.84 µM)	8 µg/mL (≈ 4.42 µM)	> 128	8 µg/mL (≈ 4.42 µM)	> 128	4 µg/mL (≈ 2.21 µM)	> 128	–
CCCCCCC(=O)NC1(C)CC(OC2c3ccc(c(Cl)c3)Oc3cc4cc(c3OC3OC(CO)C(O)C(O)C3OC3CC(C)(N)C(O)C(C)O3)Oc3ccc(cc3Cl)C(O)C(NC(=O)C(CC(C)C)NC)C(=O)NC(CC(N)=O)C(=O)NC4C(=O)NC3C(=O)NC2C(=O)NC(C(=O)O)c2cc(O)cc(O)c2-c2cc3ccc2O)OC(C)C1O (stereo not shown) [Compound 69]	< 0.62	–	2 µg/mL (≈ 1.17 µM)	1 µg/mL (≈ 0.587 µM)	.5 µg/mL (≈ 0.293 µM)	2 µg/mL (≈ 1.17 µM)	> 128	1 µg/mL (≈ 0.587 µM)	> 128	> 128	> 128	4 µg/mL (≈ 2.35 µM)	> 128	8 µg/mL (≈ 4.69 µM)	2 µg/mL (≈ 1.17 µM)	> 128	1 µg/mL (≈ 0.587 µM)	> 128	2 µg/mL (≈ 1.17 µM)	> 128	–
CCCCCNC1(C)CC(OC2c3ccc(cc3)Oc3cc4cc(c3O)Oc3ccc(cc3Cl)C(O)C(NC(=O)C(CC(C)C)NC)C(=O)NC(CC(N)=O)C(=O)NC4C(=O)NC3C(=O)NC2C(=O)NC(C(=O)O)c2cc(O)cc(O)c2-c2cc3ccc2O)OC(C)C1O (stereo not shown) [Compound 74]	–	–	8 µg/mL (≈ 6.05 µM)	8 µg/mL (≈ 6.05 µM)	4 µg/mL (≈ 3.02 µM)	4 µg/mL (≈ 3.02 µM)	> 128	4 µg/mL (≈ 3.02 µM)	> 128	> 128	> 128	4 µg/mL (≈ 3.02 µM)	> 128	2 µg/mL (≈ 1.51 µM)	4 µg/mL (≈ 3.02 µM)	> 128	4 µg/mL (≈ 3.02 µM)	> 128	4 µg/mL (≈ 3.02 µM)	> 128	–
CCCCCNC1(C)CC(OC2c3ccc(c(Cl)c3)Oc3cc4cc(c3OC3OC(CO)C(O)C(O)C3O)Oc3ccc(cc3Cl)C(O)C(NC(=O)C(CC(C)C)NC)C(=O)NC(CC(N)=O)C(=O)NC4C(=O)NC3C(=O)NC2C(=O)NC(C(=O)O)c2cc(O)cc(O)c2-c2cc3ccc2O)OC(C)C1O (stereo not shown) [Compound 77]	–	–	2 µg/mL (≈ 1.32 µM)	2 µg/mL (≈ 1.32 µM)	.5 µg/mL (≈ 0.329 µM)	.5 µg/mL (≈ 0.329 µM)	128 (≈ 84.2 µM)	.25 µg/mL (≈ 0.165 µM)	> 128	> 128	> 128	1 µg/mL (≈ 0.658 µM)	> 128	8 µg/mL (≈ 5.27 µM)	1 µg/mL (≈ 0.658 µM)	128 (≈ 84.2 µM)	.5 µg/mL (≈ 0.329 µM)	> 128	.5 µg/mL (≈ 0.329 µM)	> 128	–
